Twelve compounds from patent US20240116856A1 (Young BioPharma, LLC, priority 2020, published 2024) can be followed below.

Broadly, the IC50 is the concentration needed to halve the response being measured. As usually defined, the EC50 is the concentration giving half of the maximal effect.

The nature of one series: Mouse plasma stability. To be noted: C57BL6 mouse plasma; 2 μM (YB-2), 5 μM (controls).
For another series, the system named is OVCAR-8. The series is described as follows: Human cancer cell growth inhibition assay (ATP assay), OVCAR-8. To be noted: Homo sapiens, OVCAR-8, 96 h. The class given is cell-based.
A further series deals with T1, human TRPA1 (Homo sapiens, UniProt O75762).
T1 construct: expressed in transfected cells; host or cells: overexpressing cells
As to the kind of experiment: In vitro Ca2+ flux counter-screen in human TRPA1 overexpressing cells. The class given is cell-based.

The test system of the next series is MDA-MB-231 cell invasion. As to the kind of experiment: Cancer cell invasion assay, MDA-MB-231. The class given is cell-based, human. To be noted: 24 h. On the procedure: (§1) A cancer cell invasion assay was developed based on literature protocols (Methods 2005, 37, 208; EMBO J 2002, 21, 6289; Cellular Signalling 2012, 24, 1276.). Membrane matrix gel (Cat #A1413201, ThermoFisher) was diluted in ice-cold, serum-free RPMI 1640 Medium (Cat #31800022, ThermoFisher) at a concentration of 0.5-0.6 mg/mL. Then it was added to the upper compartment (100 μL per cup) of millicell inserts (Cat #PI8P01250, ThermoFisher) placed in a 24-well plate (Part no. 229123, Celltreat). The plate was incubated at 37° C. for 2 h to allow the liquid gel to solidify. RPMI 1640 Medium supplemented with 10% FBS (300 μL) was added to the well of the plate (lower compartment) as attractant, then DMSO or compounds were added. Human cancer cells (1×10^5 cells in 200 μL of RPMI 1640 Medium) were added to the upper compartment of the insert, then DMSO or compounds were added. After the plate was incubated at 37° C. for 24 h, the cells were fixed on the lower side of the insert membrane with 4% formaldehyde and stained with 1% crystal violet (Part no. IS12146, Innovating Science). The invaded cells on the lower side of the filter were counted under an inverted microscope equipped with either a 4× or a 10× objective (FIG. 11). The cell numbers from 5 random views were averaged and plotted as percentage against the DMSO control (FIG. 12A).

A further series relates to NCI-H460. As to the kind of experiment: Human cancer cell growth inhibition assay (ATP assay), NCI-H460. In kind it is cell-based. To be noted: Homo sapiens, NCI-H460, 96 h.
The target in the next series is T2, human TRPV3 (Homo sapiens, UniProt Q8NET8).
T2 construct: expressed in transfected cells; host or cells: overexpressing cells
T2 sequence (Q8NET8 1-790): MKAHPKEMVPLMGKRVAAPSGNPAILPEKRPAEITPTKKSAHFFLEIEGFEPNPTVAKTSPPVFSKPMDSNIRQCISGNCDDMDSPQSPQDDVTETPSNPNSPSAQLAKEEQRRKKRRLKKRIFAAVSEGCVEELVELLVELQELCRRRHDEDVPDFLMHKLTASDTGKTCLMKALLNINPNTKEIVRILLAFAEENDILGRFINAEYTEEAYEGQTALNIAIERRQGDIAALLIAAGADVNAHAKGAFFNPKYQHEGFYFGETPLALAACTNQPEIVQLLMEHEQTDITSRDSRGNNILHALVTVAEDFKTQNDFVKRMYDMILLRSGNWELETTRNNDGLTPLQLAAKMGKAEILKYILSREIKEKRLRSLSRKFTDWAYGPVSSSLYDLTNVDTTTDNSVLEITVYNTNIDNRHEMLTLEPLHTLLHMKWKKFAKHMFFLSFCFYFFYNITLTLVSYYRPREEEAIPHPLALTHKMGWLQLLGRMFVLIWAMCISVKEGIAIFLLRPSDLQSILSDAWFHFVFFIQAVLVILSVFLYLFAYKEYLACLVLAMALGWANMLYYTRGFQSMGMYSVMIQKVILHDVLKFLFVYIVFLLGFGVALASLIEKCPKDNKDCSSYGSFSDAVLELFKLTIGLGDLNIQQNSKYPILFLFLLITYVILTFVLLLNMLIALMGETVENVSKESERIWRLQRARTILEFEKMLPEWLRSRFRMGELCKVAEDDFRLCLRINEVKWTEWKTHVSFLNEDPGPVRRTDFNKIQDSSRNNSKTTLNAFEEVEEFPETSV
As to the kind of experiment: In vitro Ca2+ flux counter-screen in human TRPV3 overexpressing cells. In kind it is cell-based. On the technique in general: A change in cytosolic calcium serves as a functional read-out for many receptors and channels.

The subject of a further series is NCI-H460 cell invasion. The series is described as follows: Cancer cell invasion assay, NCI-H460. The class given is cell-based, human. The settings on record: 24 h. The method, then: as §1
A further series deals with MDA-MB-231. The series is described as follows: Human cancer cell growth inhibition assay (ATP assay), MDA-MB-231. In kind it is cell-based. The settings on record: Homo sapiens, MDA-MB-231, 96 h.
Series [1] relates to Src protein activation in MDA-MB-231 cells. As to the kind of experiment: Cancer cell immunocytochemistry assay, Phospho-Src (Y416), MDA-MB-231. In kind it is cell-based, human. The settings on record: at about 40% of IC50 concentration from cell growth inhibition assay, 4 h. The method, then:
Human cancer cells (15,000 cells/well) in 96 well half area microplate (Cat #3882, Corning) were incubated overnight at 37° C., then compounds or DMSO control were added to the cell culture and incubated at 37° C. for 1-6 h. The cells were sequentially fixed with 4% formalin, permeabilized with 0.5% Triton X-100, blocked with 5% BSA in PBS, incubated with Human Phospho-Src (Y416) Antibody (Cat #MAB2685, R&D Systems) at rt for 2 h, incubated with the secondary antibody Goat Ant-Rabbit IgG H&L (Alexa Fluor 488) (Cat #ab150077, abeam) for 45 min, and incubated with DAPI (Cat #D9542, Sigma-Aldrich) for 5 min. Finally, the cells were washed and covered with PBS. The cell images were visualized on an inverted fluorescence microscope (Leica DMIL Fluorescent Inverted Microscope with Digital Camera, Leica Microsystems). Pictures were taken [FIGS. 14A-C. Green: Human Phospho-Src (Y416), the activated form of the Src protein; Blue: DAPI (stain nucleus of cell)]. The fluorescence intensity values from 5 random cells were averaged, subtracted by the background value (area between cells) and the blank value [the blank control without the Human Phospho-Src (Y416) Antibody], then plotted as percentage against the DMSO control to indicate the effects of compound treatment on the cellular Src kinase phosphorylation levels in the cancer cells (FIGS. 15A-D).

For another series, the target named is T3, human TRPV1 (Homo sapiens, UniProt Q8NER1).
T3 construct: DYK (FLAG) tag from vector pcDNA3.1+/C-(K)DYK (C); host or cells: FreeStyle 293-F cells (HEK 293), transient transfection
The series is described as follows: In vitro Ca2+ flux assay in human TRPV1 transfected HEK 293 cells. In kind it is cell-based. The settings on record: Means±SEM from three independent experiments.

The mark [2] stands for this setting: 4 days, Means±SEM from three independent experiments, read-out: OVCAR-8, IC50.
The mark [3] stands for this setting: counter-screen, read-out: TRPA1 EC50.
The mark [4] stands for this setting: 4 days, Means±SEM from three independent experiments, read-out: NCl-H460, IC50.
Where [5] appears, read: counter-screen, read-out: TRPV3 EC50.
Setting [6] is: 4 days, Means±SEM from three independent experiments, read-out: MDA-MB-231, IC50.

Several values for one entry are separate records, joined by “and”; a condition that tells them apart may be missing. Equal entries are not always repeated. Where two headings read alike, the source gives them in different places.

T3 sequence (Q8NER1 whole entry): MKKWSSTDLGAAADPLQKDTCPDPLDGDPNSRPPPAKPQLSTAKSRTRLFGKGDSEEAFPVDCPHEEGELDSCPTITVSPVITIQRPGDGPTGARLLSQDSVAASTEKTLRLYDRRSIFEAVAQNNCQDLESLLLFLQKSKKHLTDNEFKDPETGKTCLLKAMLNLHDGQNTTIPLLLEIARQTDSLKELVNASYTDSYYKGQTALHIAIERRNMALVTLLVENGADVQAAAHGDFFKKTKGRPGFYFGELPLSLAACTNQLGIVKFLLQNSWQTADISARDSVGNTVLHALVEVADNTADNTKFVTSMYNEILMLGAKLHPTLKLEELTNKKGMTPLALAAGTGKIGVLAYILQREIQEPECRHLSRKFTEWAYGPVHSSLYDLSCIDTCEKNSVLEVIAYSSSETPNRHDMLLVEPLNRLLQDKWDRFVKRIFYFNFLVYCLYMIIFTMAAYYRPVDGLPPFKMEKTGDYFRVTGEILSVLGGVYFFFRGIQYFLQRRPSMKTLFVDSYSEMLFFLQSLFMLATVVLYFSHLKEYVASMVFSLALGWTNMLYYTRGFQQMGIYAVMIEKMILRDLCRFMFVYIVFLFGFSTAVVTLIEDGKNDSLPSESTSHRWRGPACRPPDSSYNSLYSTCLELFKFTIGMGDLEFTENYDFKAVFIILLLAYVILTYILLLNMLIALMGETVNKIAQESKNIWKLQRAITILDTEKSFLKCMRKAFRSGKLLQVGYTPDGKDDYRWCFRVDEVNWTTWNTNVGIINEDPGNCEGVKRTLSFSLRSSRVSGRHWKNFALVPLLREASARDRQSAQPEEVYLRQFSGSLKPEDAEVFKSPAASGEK
T1 sequence (O75762 whole entry): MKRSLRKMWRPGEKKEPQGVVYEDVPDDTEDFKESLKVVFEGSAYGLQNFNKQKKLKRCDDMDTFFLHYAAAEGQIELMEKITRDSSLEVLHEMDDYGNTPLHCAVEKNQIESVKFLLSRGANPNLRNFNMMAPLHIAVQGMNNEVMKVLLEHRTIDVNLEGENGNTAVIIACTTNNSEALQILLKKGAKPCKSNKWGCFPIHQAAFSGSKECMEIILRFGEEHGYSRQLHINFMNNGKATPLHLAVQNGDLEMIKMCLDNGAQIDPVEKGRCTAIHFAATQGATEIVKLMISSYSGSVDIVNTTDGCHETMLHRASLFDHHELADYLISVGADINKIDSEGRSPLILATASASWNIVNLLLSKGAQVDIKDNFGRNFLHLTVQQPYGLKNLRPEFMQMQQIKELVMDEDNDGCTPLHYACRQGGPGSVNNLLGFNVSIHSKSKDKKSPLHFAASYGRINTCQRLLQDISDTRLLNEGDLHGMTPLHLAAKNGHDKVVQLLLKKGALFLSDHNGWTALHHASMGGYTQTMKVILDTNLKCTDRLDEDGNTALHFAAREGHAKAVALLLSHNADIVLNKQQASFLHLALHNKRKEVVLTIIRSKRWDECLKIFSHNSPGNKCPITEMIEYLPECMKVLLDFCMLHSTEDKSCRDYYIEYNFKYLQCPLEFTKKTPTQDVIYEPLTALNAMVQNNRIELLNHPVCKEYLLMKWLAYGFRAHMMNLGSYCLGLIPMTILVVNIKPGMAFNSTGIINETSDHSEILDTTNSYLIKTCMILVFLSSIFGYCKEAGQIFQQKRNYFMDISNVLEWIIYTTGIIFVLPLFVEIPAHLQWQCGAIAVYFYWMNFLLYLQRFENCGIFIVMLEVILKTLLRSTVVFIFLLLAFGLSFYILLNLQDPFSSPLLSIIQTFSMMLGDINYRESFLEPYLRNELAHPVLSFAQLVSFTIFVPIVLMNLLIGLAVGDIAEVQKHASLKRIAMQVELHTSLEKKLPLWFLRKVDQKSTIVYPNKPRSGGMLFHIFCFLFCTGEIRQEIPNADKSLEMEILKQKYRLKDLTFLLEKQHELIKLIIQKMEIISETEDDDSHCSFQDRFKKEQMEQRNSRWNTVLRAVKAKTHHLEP

Turning to `CC[C@H](C)C(=O)O[C@H]1C[C@@H](C)C=C2C=C[C@H](C)[C@H](CC[C@@H]3C[C@@H](O)CC(=O)O3)[C@H]21` [Lovastatin], in “Mouse plasma stability”, the “% Remaining at T120” value came out at 0.2% and the “T1/2” value was 12 min.

As to `CC(C)[N+](C)(CCOC(=O)C1c2ccccc2Oc2ccccc21)C(C)C` [Propantheline], in “Mouse plasma stability”, the “% Remaining at T120” value was 20% and the “T1/2” value is 55 min.

Turning to `COc1cc(CNC(=O)CCCC/C=C/C(C)C)ccc1NC(C)=O` [YB-9], the results for the IC50 with OVCAR-8 (setting [2]), with NCI-H460 (setting [4]) and with MDA-MB-231 (setting [6]) were 34 ± 12 µM, 65 ± 15 µM and 75 ± 20 µM, respectively. The EC50 on human TRPA1 (setting [3]) and at human TRPV3 (setting [5]) was above 10 µM each time. The “inhibition of MDA-MB-231 cell invasion” value in the series on MDA-MB-231 cell invasion is “dose-dependently inhibited”. For the same compound, in the series on NCI-H460 cell invasion, the “inhibition of NCI-H460 cell invasion” value is recorded as “dose-dependently inhibited the NCI-H460 cell invasion from 15 μM to 60 μM”. For the same compound, in series [1], the “cellular Src kinase phosphorylation levels” value is reported as “significantly reduced the cellular Src kinase phosphorylation levels”.

Take `COc1cc(CC(=O)N/C=C/c2ccc(Cl)cc2)ccc1O` [YB-10]: the IC50 amounted to 34 µM in the series with OVCAR-8 (setting [2]), 73 ± 18 µM in the series on NCI-H460 (setting [4]) and 115 ± 28 µM in the series on MDA-MB-231 (setting [6]). Further, the EC50 at human TRPA1 (setting [3]) was above 10 µM; on human TRPV3 (setting [5]), above 10 µM; at human TRPV1 (read-out: TRPV1 EC50), < 0.1 µM and 0.012 to 0.048 µM. For the same compound, the “inhibition of MDA-MB-231 cell invasion” value in the series with MDA-MB-231 cell invasion was “dose-dependently inhibited”.

As for `COc1cc(CC(=O)N/C=C/c2cccc(C(F)(F)F)c2)ccc1O` [YB-15], the IC50 with OVCAR-8 (setting [2]) was 101 ± 17 µM; in the series with NCI-H460 (setting [4]), above 300 µM; with MDA-MB-231 (setting [6]), 250 ± 38 µM. Moreover, the EC50 at human TRPA1 (setting [3]) was above 10 µM; on human TRPV3 (setting [5]), above 10 µM; on human TRPV1 (read-out: TRPV1 EC50), < 0.1 µM and 0.012 to 0.048 µM.

With `COc1cc(CC(=O)N/C=C/c2ccc(C(F)(F)F)cc2)ccc1N` [YB-17], the IC50 was 161 ± 26 µM with OVCAR-8 (read-out: OVCAR-8, IC50, μM); 139 ± 19 µM in the series on NCI-H460 (read-out: NCl-H460, IC50, μM); 140 ± 22 µM in the series on MDA-MB-231 (read-out: MDA-MB-231, IC50, μM). The EC50 on human TRPA1 (setting [3]) was above 10 µM; at human TRPV3 (setting [5]), above 10 µM; on human TRPV1 (read-out: TRPV1 EC50), 0.34 to 1.1 µM.

As to `COc1cc(CC(=O)N/C=C/c2ccc(Cl)cc2)ccc1N` [YB-18], the values for the IC50 with OVCAR-8 (setting [2]), in the series with NCI-H460 (setting [4]) and with MDA-MB-231 (setting [6]) were 200 ± 21 µM, 133 ± 18 µM and 69 ± 16 µM, respectively. In addition, the results for the EC50 at human TRPA1 (setting [3]), on human TRPV3 (setting [5]) and at human TRPV1 (read-out: TRPV1 EC50) were above 10 µM, above 10 µM and 0.34 to 1.1 µM, respectively.

For `COc1cc(CC(=O)N/C=C/c2cccc(C(F)(F)F)c2)ccc1N` [YB-21], the IC50 turned out to be 65 ± 14 µM with OVCAR-8 (setting [2]), 103 ± 13 µM in the series on NCI-H460 (setting [4]) and 101 ± 20 µM in the series on MDA-MB-231 (setting [6]). Besides, the figures for the EC50 on human TRPA1 (setting [3]), on human TRPV3 (setting [5]) and at human TRPV1 (read-out: TRPV1 EC50) were above 10 µM, above 10 µM and 0.34 to 1.1 µM, respectively. The “inhibition of MDA-MB-231 cell invasion” value in the series on MDA-MB-231 cell invasion is reported as “dose-dependently inhibited”.

For `COc1cc(CC(=O)N/C=C/c2cc(C(F)(F)F)cc(C(F)(F)F)c2)ccc1O` [YB-22], the IC50 with OVCAR-8 (setting [2]) was 58 µM; in the series on NCI-H460 (setting [4]), 84 ± 12 µM; in the series with MDA-MB-231 (setting [6]) it was 74 µM. In addition, the EC50 on human TRPA1 (setting [3]) and on human TRPV3 (setting [5]) was above 10 µM throughout. Further, the “inhibition of MDA-MB-231 cell invasion” value in the series on MDA-MB-231 cell invasion was “dose-dependently inhibited”. Moreover, the “cellular Src kinase phosphorylation levels” value in [1] is on record as “significantly reduced the cellular Src kinase phosphorylation levels”.

For `COc1cc(CC(=O)N/C=C/c2ccc(C#N)cc2)ccc1O` [YB-23], the results for the IC50 with OVCAR-8 (setting [2]), in the series on NCI-H460 (setting [4]) and in the series on MDA-MB-231 (setting [6]) were 73 µM, 88 µM and 90 ± 12 µM, respectively. For the same compound, the EC50 on human TRPA1 (setting [3]) and at human TRPV3 (setting [5]) was above 10 µM in each case. In addition, the “inhibition of MDA-MB-231 cell invasion” value in the series on MDA-MB-231 cell invasion is on record as “dose-dependently inhibited”. Further, the “cellular Src kinase phosphorylation levels” value in series [1] is recorded as “significantly reduced the cellular Src kinase phosphorylation levels”.

As to `COc1cc(CC(=O)N/C=C/c2ccc(C(F)(F)F)cc2)ccc1OC(=O)N1CCCCC1CN(C)C(=O)OC(C)(C)C` (stereo not shown) [YB-31], the EC50 on human TRPA1, on human TRPV3 and at human TRPV1 (TRPV1 EC50 (μM)) was above 10 µM throughout.

In the case of `CNCC1CCCCN1C(=O)Oc1ccc(CC(=O)N/C=C/c2ccc(C(F)(F)F)cc2)cc1OC` (stereo not shown) [YB-35], the results for the EC50 at human TRPA1, on human TRPV3 and at human TRPV1 (TRPV1 EC50 (μM)) were above 10 µM, above 10 µM and 0.71 ± 0.14 µM, respectively.
